Results on 1 molecule are retold here after the NIST ThermoML archive (doi:10.1021/acs.jced.8b01256).

For series [1] the following is noted: Crystal; DSC.
The nature of series [2]: Molar enthalpy of transition or fusion. To be noted: Crystal; DSC.

± gives the expanded uncertainty stated by the source.

For `Cc1[nH]nc2cc([N+](=O)[O-])ccc12` [3-methyl-6-nitroindazole], in series [1], the Triple point temperature amounted to 460.15 ± 1 K. The “Molar enthalpy of transition or fusion” value in series [2] is 2.55 ± 0.0908 kcal/mol.
